Values after ≈ are worked out from the molar mass of the structure shown.
Key:
Bacillus spizizenii = test: Antibacterial activity against Bacillus subtilis ATCC 6633 after 24 hrs by MTT assay; type: functional; settings: ATCC 6633, 24 h
Pseudomonas aeruginosa = test: Antibacterial activity against Pseudomonas aeruginosa ATCC 13525 after 24 hrs by MTT assay; type: functional; settings: ATCC 13525, 24 h
[1] = Hemolytic activity in RBC (unknown origin); type: ADME, cell-based; settings: erythrocyte
Staphylococcus aureus = test: Antibacterial activity against Staphylococcus aureus ATCC 6538 after 24 hrs by MTT assay; type: functional; settings: ATCC 6538, 24 h
Escherichia coli = test: Antibacterial activity against Escherichia coli ATCC 35218 after 24 hrs by MTT assay; type: functional; settings: ATCC 35218, 24 h
[2] = Inhibition of full-length N-terminal His-tagged Escherichia coli FabH expressed in Escherichia coli BL21 (DE3) using acetyl-CoA/[3H]-acetyl-CoA/holo-ACP as substrate by liquid scintillation counting analysis

MIC (Bacillus spizizenii) [µg/mL]	MIC (Pseudomonas aeruginosa) [µg/mL]	MIC (Staphylococcus aureus) [µg/mL]	MIC (Escherichia coli) [µg/mL]	IC50 [2] [µM]	SMILES	LC30 [1] [µg/mL]
> 50	6.25 (≈ 10.4 µM)	50 (≈ 83 µM)	> 50	21.9	Cc1nn(-c2ccccc2)c(-n2nnc3ccccc32)c1C1CC(c2cccs2)=NN1C1=NC(=O)/C(=C/c2ccco2)S1 (configuration not stated)	> 10000
> 50	25 (≈ 44 µM)	25 (≈ 44 µM)	> 50	11.3	Cc1nn(-c2ccccc2)c(-n2ccnc2)c1C1CC(c2cccs2)=NN1C1=NC(=O)/C(=C/c2cccs2)S1 (configuration not stated)	> 10000
25 (≈ 41.5 µM)	> 50	> 50	12.5 (≈ 20.8 µM)	4.7	Cc1nn(-c2ccccc2)c(-n2cncn2)c1C1CC(c2cccs2)=NN1C1=NC(=O)/C(=C/c2c[nH]c3ccccc23)S1 (configuration not stated)	> 10000
6.25 (≈ 10.4 µM)	> 50	12.5 (≈ 20.8 µM)	> 50	8.5	Cc1nn(-c2ccccc2)c(-n2cnc3ccccc32)c1C1CC(c2cccs2)=NN1C1=NC(=O)/C(=C/c2ccco2)S1 (configuration not stated)	> 10000
12.5 (≈ 19.2 µM)	12.5 (≈ 19.2 µM)	50 (≈ 76.8 µM)	3.13 (≈ 4.81 µM)	2.5	Cc1nn(-c2ccccc2)c(-n2cnc3ccccc32)c1C1CC(c2cccs2)=NN1C1=NC(=O)/C(=C/c2c[nH]c3ccccc23)S1 (configuration not stated)	> 10000
3.13 (≈ 5.07 µM)	25 (≈ 40.5 µM)	25 (≈ 40.5 µM)	25 (≈ 40.5 µM)	9.1	Cc1nn(-c2ccccc2)c(-n2cnc3ccccc32)c1C1CC(c2cccs2)=NN1C1=NC(=O)/C(=C/c2cccs2)S1 (configuration not stated)	> 10000

Continued, molecule first:

SMILES	MIC (Bacillus spizizenii) [µg/mL]	MIC (Pseudomonas aeruginosa) [µg/mL]	MIC (Staphylococcus aureus) [µg/mL]	MIC (Escherichia coli) [µg/mL]	IC50 [2] [µM]	LC30 [1] [µg/mL]
CC1(C)S[C@@H]2[C@H](NC(=O)Cc3ccccc3)C(=O)N2[C@H]1C(=O)O [PENICILLIN G]	1.56 (≈ 4.67 µM)	6.25 (≈ 18.7 µM)	6.25 (≈ 18.7 µM)	3.13 (≈ 9.36 µM)	–	–
Cc1nn(-c2ccccc2)c(-n2cncn2)c1C1CC(c2cccs2)=NN1C1=NC(=O)/C(=C/c2cccs2)S1 (configuration not stated)	25 (≈ 44 µM)	50 (≈ 87.9 µM)	6.25 (≈ 11 µM)	25 (≈ 44 µM)	15.6	> 10000
Cc1nn(-c2ccccc2)c(-n2ccnc2)c1C1CC(c2cccs2)=NN1C1=NC(=O)/C(=C/c2ccco2)S1 (configuration not stated)	25 (≈ 45.3 µM)	> 50	6.25 (≈ 11.3 µM)	25 (≈ 45.3 µM)	12.8	> 10000
Cc1nn(-c2ccccc2)c(-n2cncn2)c1C1CC(c2cccs2)=NN1C1=NC(=O)/C(=C/c2ccco2)S1 (configuration not stated)	25 (≈ 45.2 µM)	50 (≈ 90.5 µM)	> 50	50 (≈ 90.5 µM)	26.1	> 10000
Cc1nn(-c2ccccc2)c(-n2ccnc2)c1C1CC(c2cccs2)=NN1C1=NC(=O)/C(=C/c2c[nH]c3ccccc23)S1 (configuration not stated)	25 (≈ 41.6 µM)	3.13 (≈ 5.21 µM)	50 (≈ 83.2 µM)	6.25 (≈ 10.4 µM)	3.9	> 10000
Cc1nn(-c2ccccc2)c(-n2nnc3ccccc32)c1C1CC(c2cccs2)=NN1C1=NC(=O)/C(=C/c2c[nH]c3ccccc23)S1 (configuration not stated)	> 50	6.25 (≈ 9.59 µM)	25 (≈ 38.4 µM)	3.13 (≈ 4.8 µM)	3.1	> 10000
NC[C@H]1O[C@H](O[C@H]2[C@H](O)[C@@H](O[C@H]3O[C@H](CO)[C@@H](O)[C@H](N)[C@H]3O)[C@H](N)C[C@@H]2N)[C@H](N)[C@@H](O)[C@@H]1O [BEKANAMYCIN]	0.39 (≈ 0.807 µM)	3.13 (≈ 6.47 µM)	1.56 (≈ 3.23 µM)	1.56 (≈ 3.23 µM)	6.3	> 10000
Cc1nn(-c2ccccc2)c(-n2nnc3ccccc32)c1C1CC(c2cccs2)=NN1C1=NC(=O)/C(=C/c2cccs2)S1 (configuration not stated)	12.5 (≈ 20.2 µM)	6.25 (≈ 10.1 µM)	> 50	50 (≈ 80.8 µM)	17.5	> 10000

— ChEMBL document CHEMBL3596127, “Design, synthesis and molecular docking of novel bipyrazolyl thiazolone scaffold as a new class of antibacterial agents” (Medchemcomm, 2014)
